Reference: the supplement of paper PMC7695840
Where a name gives a salt, the structure may show the parent alone.

Assays:
[1] = system: Staphylococcus aureus MW2 delta-mecA (mecA-); assay: IC50 (growth, competition assay); details: cefoxitin: subinhibitory
In short: (§1)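 Two fluorescent S. aureus MW2 strains, one carrying and one lacking the resistance gene, were pre-induced, mixed 1:1 and grown unshaken in LB in 1536-well plates for 20 h at 37 °C and 90% humidity with a subinhibitory drug dose set each day. Compounds were tested on five- or nine-point 2-fold gradients in two dye-swapped replicates. DsRed (540/590) and GFP (485/520) signals were scaled per plate between the medians of single-strain controls, and No Treatment was then set to 0.5. For each strain, IC50 was taken as the dose that halved the No Treatment signal, or else the maximal signal.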

[2] = system: Staphylococcus aureus MW2 (mecA+); assay: IC50 (growth, competition assay); details: cefoxitin: subinhibitory
In short: as §1

Structure (SMILES) | IC50 ([1]; fluorescent label: DsRed) [µM] | IC50 ([1]; fluorescent label: GFP) [µM] | IC50 ([2]; fluorescent label: DsRed) [µM] | IC50 ([2]; fluorescent label: GFP) [µM]
CC(C)(Sc1ccc(CCN(CCCCC2CCCCC2)C(=O)NC2CCCCC2)cc1)C(=O)O [GW7647] | < 9.85 | < 9.85 | 14.3 | 13.1
COc1c(N2C[C@@H]3CCCN[C@@H]3C2)c(F)cc2c(=O)c(C(=O)O)cn(C3CC3)c12 [AVELOX] | < 9.85 | < 9.85 | < 9.85 | < 9.85
COc1ccc(NC(=O)c2ccc(-c3ccc(-c4noc(C)n4)cc3C)cc2)cc1N1CCN(C)CC1 | < 9.85 | 12.2 | 30.1 | 44.9
CC[C@H]1OC(=O)C[C@@H](O)[C@H](C)[C@@H](O[C@@H]2O[C@H](C)[C@@H](O)[C@H](N(C)C)[C@H]2O)[C@@H](CCN2C[C@H](C)C[C@H](C)C2)C[C@@H](C)C(=O)/C=C/C(C)=C/[C@@H]1CO[C@@H]1O[C@H](C)[C@@H](O)[C@@H](OC)[C@H]1OC [Tilmicosin] | < 9.85 | < 9.85 | < 9.85 | < 9.85
CC[C@H](C)[C@H](N)C1=N[C@H](C(=O)N[C@@H](CC(C)C)C(=O)N[C@H](CCC(=O)O)C(=O)N[C@H](C(=O)N[C@H]2CCCCNC(=O)[C@H](CC(N)=O)NC(=O)[C@@H](CC(=O)O)NC(=O)[C@H](Cc3cnc[nH]3)NC(=O)[C@@H](Cc3ccccc3)NC(=O)[C@H]([C@@H](C)CC)NC(=O)[C@@H](CCCN)NC2=O)[C@@H](C)CC)CS1 [BACITRACIN] | 37.8 | 59.4 | > 150 | > 150
NC(=O)c1cnccn1 [TEBRAZID] | 18.2 | 20.3 | 26.7 | 35.6
CC(C)(C)C#Cc1cc(N(C(=O)[C@H]2CC[C@H](C)CC2)[C@H]2CC[C@H](O)CC2)c(C(=O)O)s1 [VX-222] | 16.8 | 17.4 | 25.7 | 53.7
N=C(NCCCCCCNC(=N)NC(=N)Nc1ccc(Cl)cc1)NC(=N)Nc1ccc(Cl)cc1 [LISIUM] | < 9.85 | < 9.85 | < 9.85 | < 9.85
O=c1oc2ccccc2c(O)c1Cc1c(O)c2ccccc2oc1=O [DICUMOL] | 14 | 27 | 11.6 | 18.2
CN(C(=O)CN(CCO)CC(=O)N(C)C(C)(C)Cc1ccccc1)C(C)(C)Cc1ccccc1 [OXETHAZAINE] | 40.2 | 30.5 | 103 | 111
CC(=O)N1CCN(c2ccc(OCC3COC(Cn4ccnc4)(c4ccc(Cl)cc4Cl)O3)cc2)CC1 (stereo unspecified) [KETOZOLE] | 50.6 | 32.2 | 112 | 132
CN(C)C[C@H](O)Cn1c2ccc(Br)cc2c2cc(Br)ccc21 (racemic) [Wiskostatin] | < 9.85 | < 9.85 | 17.6 | 20.5
OCCN1CCN(CCCN2c3ccccc3Sc3ccc(Cl)cc32)CC1 [TRILAFON] | 18.4 | 15.8 | 57 | 52.6
COc1c(O)cc2oc3cc(O)c(CC=C(C)C)c(O)c3c(=O)c2c1CC=C(C)C [alpha-MANGOSTIN] | < 9.85 | < 9.85 | < 9.85 | < 9.85
CCC(Cc1c(I)cc(I)c(N)c1I)C(=O)O (stereo unspecified) [TELEPAQUE] | < 9.85 | < 9.85 | 10.4 | 27.5
CN1CCN(c2cc3c(cc2F)c(=O)c(C(=O)O)cn3-c2ccc(F)cc2)CC1 [DICURAL] | < 9.85 | < 9.85 | < 9.85 | < 9.85
C=C(CC)C(=O)c1ccc(OCC(=O)O)c(Cl)c1Cl [EDECRIN] | < 9.85 | < 9.85 | 34.1 | 36.7
CN1CCN(c2c(F)cc3c(=O)c(C(=O)O)cn4c3c2SCC4)CC1 [TEBRAXIN] | < 9.85 | < 9.85 | < 9.85 | < 9.85
COc1cccc(OC)c1C(=O)N[C@@H]1C(=O)N2[C@@H]1SC(C)(C)[C@@H]2C(=O)O [STAPHCILLIN] | < 9.85 | < 9.85 | < 9.85 | < 9.85
Cc1cc2c(C(C)C)c(O)c(O)c(C=O)c2c(O)c1-c1c(C)cc2c(C(C)C)c(O)c(O)c(C=O)c2c1O [GOSSYPOL] | < 9.85 | < 9.85 | < 9.85 | < 9.85
COc1ccnc2[nH]cc(C(=O)C(=O)N3CCN(C(=O)c4ccccc4)C[C@H]3C)c12 | > 150 | > 150 | > 150 | > 150
CN(C)c1ccc(O)c2c1C[C@H]1C[C@H]3[C@H](N(C)C)C(O)=C(C(N)=O)C(=O)[C@@]3(O)C(O)=C1C2=O [Minocycline hydrochloride] | < 9.85 | < 9.85 | < 9.85 | < 9.85
c1ccc(-c2ccc(C(c3ccccc3)n3ccnc3)cc2)cc1 (stereo unspecified) [MYCOSPOR] | 16.8 | 10.5 | 15.5 | 19.1
CN(C)C(=O)C(CCN1CCC(O)(c2ccc(Cl)cc2)CC1)(c1ccccc1)c1ccccc1 [Loperamide hydrochloride] | 31.4 | 39 | 103 | 109
C/C=C(/C(=C/C)c1ccc(O)cc1)c1ccc(O)cc1 [ESTRAGUARD] | 18.5 | < 9.85 | 30.7 | 52.9
CCOC(=O)[C@H](CCc1ccccc1)N[C@@H](C)C(=O)N1Cc2ccccc2C[C@H]1C(=O)O [ACCUPRIL] | > 150 | > 150 | > 150 | > 150
CC(=O)Oc1ccc(Cl)c2cccnc12 [SILITAL] | 15.6 | < 9.85 | 17.2 | 29.8
CCN1CCN(C(=O)N[C@@H](C(=O)N[C@@H]2C(=O)N3C(C(=O)O)=C(CSc4nnnn4C)CS[C@H]23)c2ccc(O)cc2)C(=O)C1=O [CEFOBID] | < 9.85 | < 9.85 | 19.5 | 24.5
COC(=O)/C(C)=C\C[C@@]12OC(C)(C)[C@@H]3C[C@@H](C=C4C(=O)c5c(O)c6c(c(CC=C(C)C)c5O[C@]431)O[C@](C)(CCC=C(C)C)C=C6)C2=O [METHYL GAMBOGATE] | 12.8 | 22.9 | 56.8 | 66.4
